Measurements as given in patent US8492614B2, “Plant biochemical systems and uses thereof” (The Board of Trustees of the University of Illinois, priority 2007, dated 2013).
Entries after “also recorded” stand apart in the source; their conditions may differ.

Legend:
[1] = system: etiolated Arabidopsis seedlings; test: Cotyledon natural fluorescence by deconvoluting microscopy; format: in vivo; details: hormone applied to etiolated cotyledons; 24 h; 1.0 μM ABA, 500 μM JA
Procedure: Fluorescent images were obtained of living unfixed seedlings 24 h post BL or ABA treatment as described in the “Plant Growth and Preparation of Tissue” section. Optical sectioning was achieved by using a Zeiss Axiovert 200M microscope (Carl Zeiss), equipped with ApoTome (collected by grid projection), and a digital camera and the 4#,6-diamino-phenylindole, fluorescein isothiocyanate, and Texas Red filter sets (Chroma). Photographs of whole cotyledon fluorescence were snapped on the same microscope set up, minus the apoTome setting.
The preparation of whole cell extracts from the areal portions of the seedlings for the quantification of Phe levels and PD1 activity levels is described in (Warpeha et al., Plant Physiol. 143:1590-1600, 2007). Phe concentration is determined by HPLC. […] Natural fluorescence of the cotyledons is visualized and quantitated by deconvoluting microscopy using a “DAPI-Long Pass” filter which allows excitation between 300-380 nm and emits with a cutoff […] 400 nm.
If the Phe produced by activated PD1 is necessary for the ability of young etiolated seedlings to respond to UV-B, salt or heat stress, then it is possible that the addition of exogenous Phe (effectively cross feeding Phe) could restore a wild type response to GCR1, GPA1 and PD1 mutants when assayed for cotyledon fluorescence and the ability to survive sub-lethal levels of UV-C. To determine if exogenous Phe can restore wild type responses to GCR1, GPA, and PD1 mutants, 1 mM Phe is added to the top agar during planting and the experiment described above specifically testing for cotyledon surface fluorescence and the ability to survive sub-lethal levels of UV-C is repeated. Serine and […] are used as negative controls in these assays.
The experiments described above for examining if GCR1, GPA1 and PD1 are required for young etiolated seedlings to respond to UV-B, salt or heat stress are performed but with ABA, ACC, JA and SA substituting for UV-B, salt and heat. For these experiments, ABA is tested at 1.0 μM dissolved in ethanol and applied as an atomized mist. […]

[2] = system: Lhcb expression; test: Lhcb RNA levels by northern analysis after ABA treatment of etiolated seedlings; format: in vivo, Arabidopsis; details: 800 nM ABA
Procedure: Six-d-old dark-grown Arabidopsis seedlings col wild type or insertion mutants were grown on 0.8% agarose plates containing only 0.5× Murashige and Skoog media as described in Lapik and Kaufman (2003). The growth media contains no additional sugar, hormones, vitamins or other nutrients. Seedlings were irradiated with a single pulse (10 s) of low fluence BL (total fluence of 10^2 μmol m^−2); or a single pulse (100 s) of saturation fluence BL (total fluence of 10^4 μmol m^−2); or no light (DK), and/or, treated with 800 nM ABA dissolved in ethanol, or ethanol alone, placed back in the dark for two h after which total RNA was extracted and used for northern blot analysis (Lapik and Kaufman, 2003). Lhcb and rDNA probes used, quantitation methods, and means of normalization to rRNA levels are described elsewhere (Marrs and Kaufman, (1991) Planta 183: 327-333). […] All induction data is correct for loading through the quantitation of the rRNA as described (Warpeha and Kaufman, (1990) Planta 182: 553-558). […] Real time quantitative PCR (qPCR) was used to measure the level of Lhcb RNA induction in response to a single pulse of low fluence blue light as a confirmation of the Northern blot analysis methods. […] The qPCR-derived information (4 different RNA sets of Dark and BL-treated) data was analyzed using (ΔΔCoT). […]

[3] = system: PD1; test: Cytosolic PD1 activity after ABA treatment of etiolated seedlings; format: in vivo, Arabidopsis; details: ABA treatment of etiolated wild type
Excerpt: Activated GPA1 has a specific physical interaction with PD1 that results in a significant increase in PD1 activity. PD1 is the only member of the PD family that is expressed in etiolated Arabidopsis. […] The increase in PD1 activity in response to BL or ABA treatment also requires GCR1. BL Irradiation or ABA treatment of pd1, gcr1 and gpa1 T-DNA insertion mutants result in none of these events described for wt. We conclude that GCR1, GPA1 and PD1 form a signaling chain that is responsible for ABA and BL induced synthesis of phenylpyruvate, phenylalanine and a series of UV absorbing products from the phenylpropanoid pathway. In etiolated seedlings phenylalanine is synthesized via a phenylpyruvate intermediate, much like in bacteria and fungi, and not via an arogenate pathway (Warpeha et al., Plant Physiol. 140:844-855).
All plants are returned to complete darkness for two hours after which cytosolic extracts are prepared and assayed as described infra.

[4] = Stability of absorbance spectra of cell free extracts with or without phenylalanine; format: physicochemical, Arabidopsis; details: cell free extracts in buffer; 24 h, room temperature or +4° C., lab lighting
Procedure: Cell free extracts were left at room temperature for 24 h after a 10^5 μmol m^−2 treatment of UV (366 nm) in lab lighting (which is fluorescent).

[5] = target: T1, PD1 (Arabidopsis thaliana, UniProt Q9ZUY3); test: In vitro GPA1-PD1 activation assay; format: biochemical; details: compared with inactive (GDP or GDPβS) or no GPA1
T1 construct: Full-length GPA1 and PD1 templates were amplified, prepared, and purified by the methods described; made in house; host or cells: cell-free: TNT T7 coupled wheat germ extract system (Promega)
T1 sequence (Q9ZUY3 25-424): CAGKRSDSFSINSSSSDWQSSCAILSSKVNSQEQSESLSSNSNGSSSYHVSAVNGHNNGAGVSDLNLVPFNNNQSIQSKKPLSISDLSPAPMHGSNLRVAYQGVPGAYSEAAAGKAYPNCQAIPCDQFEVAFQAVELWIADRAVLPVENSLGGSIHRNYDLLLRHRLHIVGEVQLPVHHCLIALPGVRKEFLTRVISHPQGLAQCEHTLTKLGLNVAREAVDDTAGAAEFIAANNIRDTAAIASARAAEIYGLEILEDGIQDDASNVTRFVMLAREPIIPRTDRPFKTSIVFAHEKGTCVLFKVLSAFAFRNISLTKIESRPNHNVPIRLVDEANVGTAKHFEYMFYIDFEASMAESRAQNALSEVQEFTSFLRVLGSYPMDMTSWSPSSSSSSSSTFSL
T1 sequence (P18064 1-383 partner): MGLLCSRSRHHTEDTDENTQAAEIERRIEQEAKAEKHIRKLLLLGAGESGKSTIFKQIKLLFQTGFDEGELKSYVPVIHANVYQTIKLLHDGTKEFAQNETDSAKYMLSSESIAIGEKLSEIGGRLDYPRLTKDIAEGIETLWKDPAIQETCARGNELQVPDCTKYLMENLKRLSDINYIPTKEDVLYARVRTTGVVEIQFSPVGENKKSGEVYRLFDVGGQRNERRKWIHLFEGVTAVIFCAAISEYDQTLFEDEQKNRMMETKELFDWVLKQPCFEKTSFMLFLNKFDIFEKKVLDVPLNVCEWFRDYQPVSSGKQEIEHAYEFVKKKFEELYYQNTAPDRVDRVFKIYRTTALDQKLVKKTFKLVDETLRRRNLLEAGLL
Procedure: Full-length GPA1 and PD1 templates were amplified, prepared, and purified by the methods described (Lapik and Kaufman, 2003). GPA1 and PD1 proteins were individually produced by coupled in vitro transcription/translation using TNT T7 coupled wheat germ extract system (Promega). In vitro association assays were conducted by mixing approximately equimolar concentrations of GPA1 with PD1 in PD assay buffer at 4° C. with modifications for plants: 50 mM K2PO4 pH 7.5, 1.0 mM dithiothreitol, […], and 0.5% protease inhibitor cocktail for plants. Activated GPA1 was achieved by preincubation with […] (a nonhydrolyzable GTP analog). Inactivated GPA1 was achieved by preincubation with GDP, or GDPγS (a nonhydrolyzable GDP analog). […] Reaction mixtures were stopped at time zero and various time points thereafter by adding 0.5 volume of 1N NaOH.
The increase in activity occurs quickly as approximately 90% of the measured increase in activity occurs within the first 10 min of incubation.

CC1=CC(=O)CC(C)(C)[C@@]1(O)/C=C/C(C)=C\C(=O)O [ABA, abscisic acid]
accumulation of UV- and BL-absorbing fluorescent material in cotyledons [1]: phenotype identical to that observed in wild-type seedlings for BL irradiation; also recorded: response pattern is identical to that of UV-B, salt and heat | Lhcb RNA accumulation in mutant seedlings ([2]; gcr1, gpa1, prn1, nf-y-b9, nf-y-a5 mutants): fails to induce Lhcb RNA accumulation | Lhcb expression in wild type seedlings ([2]; six-d-old etiolated wild type): induces Lhcb expression | cytosolic PD1 activity [3]: increase in cytosolic PD1 activity

CC/C=C\C[C@H]1C(=O)CC[C@@H]1CC(=O)O [JA, jasmonic acid, reference compound]
accumulation of UV- and BL-absorbing fluorescent material in cotyledons [1]: response pattern is identical to that of UV-B, salt and heat

CSCC[C@H](N)C(=O)O [L-methionine, reference compound]
stability of the extract solution (absorbance spectra, pigments) over time [4]: did not increase stability of the solution

B1: activated GPA1: Arabidopsis G-protein Gα subunit made by in vitro transcription/translation, activated with GTPγS (protein, UniProt P18064 2-383, looked up)
Guanine nucleotide-binding …: GLLCSRSRHHTEDTDENTQAAEIERRIEQEAKAEKHIRKLLLLGAGESGKSTIFKQIKLLFQTGFDEGELKSYVPVIHANVYQTIKLLHDGTKEFAQNETDSAKYMLSSESIAIGEKLSEIGGRLDYPRLTKDIAEGIETLWKDPAIQETCARGNELQVPDCTKYLMENLKRLSDINYIPTKEDVLYARVRTTGVVEIQFSPVGENKKSGEVYRLFDVGGQRNERRKWIHLFEGVTAVIFCAAISEYDQTLFEDEQKNRMMETKELFDWVLKQPCFEKTSFMLFLNKFDIFEKKVLDVPLNVCEWFRDYQPVSSGKQEIEHAYEFVKKKFEELYYQNTAPDRVDRVFKIYRTTALDQKLVKKTFKLVDETLRRRNLLEAGLL
modifications: GTPγS-bound
increase in PD1 activity [5]: 2 fold
